The results in this text go back to US9687470B2, “Compounds for use in the treatment of filariasis” (RHEINISCHE FRIEDRICH-WILHELMS UNIVERSITAET BONN, priority 2011, dated 2017).

SMILES strings stand for the structures. “Also recorded” adds a separate entry of the source.

Series [1] can be described thus: Stability of corallopyronin A injection samples in PBS by analytical HPLC. It is filed as physicochemical. The conditions noted are these: samples in PBS used for injection; days 1, 14 and 28; compared with purified corallopyronin A. The procedure: To verify that the corallopyronin A was stable over the whole period of the in vivo experiment, aliquots of the samples in phosphate buffered saline (PBS, PAA Laboratories, Colbe, Germany) which were used for injection were analyzed by High performance liquid chromatography (HPLC). The conditions for the analytical HPLC runs were the same as above. […] Five weeks post infection worms were recovered from the pleural cavity by lavage with PBS. The worms were sorted by sex with the aid of a dissecting microscope and their lengths measured. 10 female worms from each treatment were individually frozen for DNA extraction.

The test system of series [2] is Wolbachia of A. albopictus. Briefly: Susceptibility of Wolbachia to corallopyronin A in vitro (infected C6/36 cells, qPCR 16S-rRNA/actin ratio). Format: cell-based. The procedure: The activity of corallopyronin A against Wolbachia was tested in vitro using the Aedes albopictus C6/36 cell line infected with Wolbachia of A. albopictus.
The susceptibility of Wolbachia towards corallopyronin A was investigated as described previously (Henrichfreise, Schiefer et al., “Functional conservation of the lipid II biosynthesis pathway in the cell wall-less bacteria Chlamydia and Wolbachia: why is lipid II needed?”, (2009) Mol Microbiol, 73 (5): 913-923) with some modifications.
The A. albopictus cell line C6/36 (European Collection of Cell Cultures) infected with Wolbachia from A. albopictus B containing supernatant as described in Turner et al., J Immunol 2006, 177(2): 1240-1249 were cultured in 96-well plates by seeding each well with 1×10^4 insect cells. The cells were incubated for 9 days at 26° C. in L15 Leibovitz's medium (Invitrogen, Darmstadt, Germany) supplemented with 5% fetal calf serum (FCS, Invitrogen), 1% nonessential amino acids (PAA Laboratories, Colbe, Germany), 0.59 mg/ml tryptose phosphate broth (Sigma, Munich, Germany) and 0.01% penicillin/streptomycin (PAA Laboratories) with and without 4 μg/ml doxycycline (Merck, Darmstadt, Germany) and 1, 0.1 and 0.01 μg/ml corallopyronin A in duplicate. The medium was replaced every third day. The treated cells were harvested on day 9.
Extraction of genomic DNA was performed with the QIAamp Kit (Qiagen, Hilden, Germany) according to the instructions of the manufacturer. Depletion of Wolbachia was monitored by quantitative real-time PCR (qPCR) using the primers 16S-rRNA-Fw (5′-[…]-3′, SEQ ID NO: 1) and 16S-rRNA-Rev (5′-GTGTGGCTGATCATCCTCT-3′, SEQ ID NO: 2) which target the 16S-rRNA gene (GenBank Accession #: X61767) of Wolbachia and Ac-Fw (5′-[…]-3′, SEQ ID NO: 3) and Ac-Rev (5′-[…]-3′, SEQ ID NO: 4) for actin (GenBank Accession #: DQ657949) of the C6/36 cells.
The PCR reaction mixtures were 20 μl of 1× HotStar Taq Buffer (Qiagen), 3 mM MgCl2, 0.2 mM dNTPs (PeqLab, Erlangen, Germany), 0.5 μM forward and reverse 16S-rRNA primers or 0.3 μM forward and reverse actin primers, 0.2 μl of a 1:1000 dilution in DMSO of SybrGreen (Roche, Mannheim, Germany), 0.5 units HotStar Taq polymerase and 2 μl of gDNA. […] Specific amplification was confirmed by a melting curve analysis from 72° C. to 95° C. with fluorescence acquired on the FAM channel at 1° C. intervals. The copy number of each gene was calculated using a plasmid containing the appropriate insert as standard curve. […]
Normal distribution of the data was calculated using the D′Agostino & Pearson omnibus normality test. […] Alls statistics were calculated using GraphPad Prism version 5.00 for Windows, GraphPad Software, San Diego Calif. […]
On the technique in general: In qPCR the cycle at which signal appears reflects the starting amount.

The next series deals with C6/36 cells. It is filed as cell-based, Aedes albopictus.
A further series relates to Wolbachia. Briefly: Susceptibility of Wolbachia in vivo: depletion from L. sigmodontis worms in infected BALB/c mice (qPCR ftsZ/actin). Set-up: species or system Wolbachia of Litomosoides sigmodontis in BALB/c mice. The procedure: The effect of corallopyronin A in vivo was determined in a rodent model of BALB/c mice infected with the rodent filarial worm Litomosoides sigmodontis host to Wolbachia. L. sigmodontis a well established model for human filarial worms. A key advantage of this model is the fact that administration of anti-wolbachial drugs concomitant with infection by the L. sigmodontis larvae allows for a rapid assessment of activity on the day the worms are retrieved from the infected animals.
The L. sigmodontis life cycle was maintained at the Institute for Medical Microbiology, Immunology and Parasitology as described by Al-Qaoud KM et al. (1997) “Infection of BALB/c mice with the filarial nematode Litomosoides sigmodontis: role of CD4+T cells in controlling larval development”, Infect Immun 65: 2457-2461.
Female BALB/c mice aged 6-8 weeks were purchased from Charles River, Sulzfeld, Germany. […]
To control for degradation over time, an aliquot of corallopyronin A was frozen for HPLC analysis on days 1, 14 and 28. […] The worms were sorted by sex with the aid of a dissecting microscope and their lengths measured. […]
Depletion of Wolbachia was monitored by qPCR using the primers Ls-FtsZ-Fw (5′-[…]-3′, SEQ ID NO: 5) and Ls-FtsZ-Rev (5′-TTGCAATTACTGGTGCTGC-3′, SEQ ID NO: 6) and hybridization probe (5′-6-FAM-[…]-TAMRA-3′, SEQ ID NO: 7) which target ftsZ (GenBank Accession #: AJ010271), a single copy number gene of Wolbachia. […] Cycling conditions were: 95° C. for 15 minutes followed by 35 cycles of 94° C. for 4 seconds, 58° C. for 30 seconds and 72° C. for 15 seconds with fluorescence acquired on the FAM channel as described in Arumugam S et al., Int J Parasitol 2008, 38: 981-987.
To normalize the ftsZ content of worms of different lengths, the L. sigmodontis actin gene (GenBank Accession No.: GU971367) was quantified by qPCR using the primers Ac-Fw (5′-[…]-3′, SEQ ID NO: 8) and Ac-Rev (5′-[…]-3′, SEQ ID NO: 9). […]

Another series has as its system Litomosoides sigmodontis. Description: Worm length (larval development) of L. sigmodontis recovered from treated BALB/c mice. It is filed as in vivo, Litomosoides sigmodontis in BALB/c mice. The note with it: worms recovered five weeks post infection. The procedure: The effect of corallopyronin A in vivo was determined in a rodent model of BALB/c mice infected with the rodent filarial worm Litomosoides sigmodontis host to Wolbachia. L. sigmodontis a well established model for human filarial worms. A key advantage of this model is the fact that administration of anti-wolbachial drugs concomitant with infection by the L. sigmodontis larvae allows for a rapid assessment of activity on the day the worms are retrieved from the infected animals. […] The L. sigmodontis life cycle was maintained at the Institute for Medical Microbiology, Immunology and Parasitology as described by Al-Qaoud KM et al. (1997) “Infection of BALB/c mice with the filarial nematode Litomosoides sigmodontis: role of CD4+T cells in controlling larval development”, Infect Immun 65: 2457-2461. Female BALB/c mice aged 6-8 weeks were purchased from Charles River, Sulzfeld, Germany. […] The worms were sorted by sex with the aid of a dissecting microscope and their lengths measured. […] Normal distribution of the data was calculated using the D′Agostino & Pearson omnibus normality test. […] Alls statistics were calculated using GraphPad Prism version 5.00 for Windows, GraphPad Software, San Diego Calif. […]

The nature of series [3]: Tolerability in infected BALB/c mice. Format: in vivo. The note with it: 35 mg/kg/day dosage. The procedure: Female BALB/c mice aged 6-8 weeks were purchased from Charles River, Sulzfeld, Germany. The mice were infected with L. sigmodontis larvae as described in by Al-Qaoud K M et al. Beginning the day after the infection, the mice were untreated or given intra-peritoneal injections of: 10% dimethyl sulfoxide (DMSO) (vehicle control), 50 mg/kg/day doxycycline (Merck), or 35 mg/kg/day of corallopyronin A. Doxycycline was given for 14 days while corallopyronin A and 10% DMSO (vehicle control) were given for 28 days. All substances were diluted in phosphate buffered saline (PBS, PAA Laboratories).

As for `C/C=C/C/C=C(/C)[C@H](O)CC/C(C)=C/C=C(\C)C(=O)c1c(O)cc([C@H](C)CC/C=C/NC(=O)OC)oc1=O` [corallopyronin A, methyl N-[(1E)-5-[4-hydroxy-3-[(2E,4E,9Z,12E)-8-hydroxy-2,5,9-trimethyltetradeca-2,4,9,12-tetraenoyl]-2-oxo-2H-pyran-6-yl]hex-1-en-1-yl]carbamate], in series [1], the “degradation of corallopyronin A (HPLC)” value is reported as “no degradation”. The “depletion of Wolbachia relative to doxycycline” value in series [2] (1 μg/ml versus 4 μg/ml doxycycline, nine days, C6/36 cell line) is recorded as “levels equivalent to 4 μg/ml of the tetracycline doxycycline; also recorded: levels equivalent to those of 4 μg/ml doxycycline”. In series [2] (beginning at 0.1 μg/ml, nine days of treatment, C6/36 cell line), the “depletion of Wolbachia” value is on record as > 50%. In addition, the “anti-wolbachial effect in vitro” value in series [2] (in vitro tests, summary statement) is “potent anti-wolbachial effect”. Moreover, in series [2] (nine day assay, 1, 0.1 and 0.01 μg/ml), the “dose dependence of Wolbachia depletion” value is “dose dependent manner”. Also, in the series with C6/36 cells, the “toxicity to cells / cell growth” value is given as “without apparent cytotoxic effects”. Further, in the series on Wolbachia (35 mg/kg/day for 28 days versus doxycycline 50 mg/kg/day for 14 days), the “Wolbachia depletion from worms relative to doxycycline” value is reported as “levels below those seen for doxycycline”. Further, in the series on Wolbachia (BALB/c mice infected with L. sigmodontis, 35 mg/kg/day intra-peritoneal for 28 days), the “depletion of the Wolbachia compared to the control” value is > 99%. For the same compound, the “anti-wolbachial effect in vivo” value in the series on Wolbachia (in vivo tests, summary statement) was “potent anti-wolbachial effect”. The compound further displayed a worm length in the series on Litomosoides sigmodontis (35 mg/kg/day intra-peritoneal for 28 days, control worms 38 mm) of 9.0 mm. Moreover, in series [3], the tolerability in mice result is listed as “well tolerated” and the “visually apparent toxic effects in mice” value is reported as “no toxic effects were visually apparent”.

On to `C[C@H]1c2cccc(O)c2C(=O)C2=C(O)[C@]3(O)C(=O)C(C(N)=O)=C(O)[C@@H](N(C)C)[C@@H]3[C@@H](O)[C@@H]21` [doxycycline, reference compound], for which, in the series on Litomosoides sigmodontis (doxycycline 50 mg/kg/day intra-peritoneal for 14 days, untreated 38 mm, vehicle 34 mm), the “worm length (median)” value came out at 8.3 mm.
